# Where “and” joins values, the source holds several entries; their conditions need not be identical. Equal entries are not always repeated.
# Key:
# NOX1 = target: T1, NOX1 (Homo sapiens, UniProt Q9Y5S8); test: Parallel control measurement of NOX1 activity / extracellular superoxide anion production; assay type: cell-based
# T1 construct: endogenous in cells
# T1 sequence (Q9Y5S8 1-564): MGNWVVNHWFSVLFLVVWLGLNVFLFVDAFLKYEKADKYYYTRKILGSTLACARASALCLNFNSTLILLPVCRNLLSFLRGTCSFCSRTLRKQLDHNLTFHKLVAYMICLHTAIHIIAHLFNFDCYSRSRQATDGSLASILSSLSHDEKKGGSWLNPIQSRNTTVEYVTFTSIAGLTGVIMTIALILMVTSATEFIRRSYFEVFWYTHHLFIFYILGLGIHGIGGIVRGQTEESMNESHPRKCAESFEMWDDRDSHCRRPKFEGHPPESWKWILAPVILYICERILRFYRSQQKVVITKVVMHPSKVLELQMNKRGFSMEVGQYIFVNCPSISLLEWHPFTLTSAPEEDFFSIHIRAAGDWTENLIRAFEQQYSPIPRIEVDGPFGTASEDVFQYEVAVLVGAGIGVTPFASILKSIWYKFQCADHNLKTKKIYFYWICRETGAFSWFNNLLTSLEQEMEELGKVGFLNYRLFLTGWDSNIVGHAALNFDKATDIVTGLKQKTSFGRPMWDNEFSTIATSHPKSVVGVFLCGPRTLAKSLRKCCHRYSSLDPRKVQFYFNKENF
# T1 sequence (P13498 1-195 partner): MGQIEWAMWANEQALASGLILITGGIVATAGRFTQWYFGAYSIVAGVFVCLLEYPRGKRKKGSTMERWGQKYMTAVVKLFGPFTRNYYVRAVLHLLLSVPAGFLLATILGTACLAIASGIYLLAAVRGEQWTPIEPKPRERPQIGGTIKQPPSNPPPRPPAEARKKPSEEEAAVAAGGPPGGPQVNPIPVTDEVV
# Protocol: Inkubationsbedingungen wie in Figur 11. Zusätzlich wurden 5 µM AEBSF oder 100 µM AEBSF zugegeben. 5 µM AEBSF führen zu einer Hemmung um nur 20 % von NOX1, während 100 µM mehr als 90 % hemmen, wie parallel durchgeführte Kontrollmessungen ergeben haben. Die geringfügige Hemmung durch 5 µM AEBSF reicht bereits aus, den Synergieeffekt aufzuheben und die Apoptoseinduktion auf das Niveau der alleinige Gabe von DADS zu drücken. Dies zeigt, dass tatsächlich die NOX-stimulierende Wirkung von Resveratrol für den Synergieeffekt notwendig war.
# (§1) Die Messung der extrazellulären Superoxidanionenkonzentration von Tumorzellen sowie die Bestrahlungstechnik mit Niedrigdosis-Gammastrahlung wird in der Arbeit Temme and Bauer, 2013 beschrieben. Die Hemmung der NOD wird bei Scheit and Bauer, 2015, beschrieben. Viele Versuchsergebnisse wurden in den Figuren dargestellt.
# Um zu klären, ob der durch das Hybridmolekül gebündelte Synergieeffekt tatsächlich durch die NOX-stimulierende Wirkung des von Resveratrol abgeleiteten Anteils mitgetragen wird, wurde die Wirkung des Hybridmoleküls in Gegenwart von 5 µM AEBSF untersucht. Für diese Hemmstoffkonzentration wurde in Parallelexperimenten ermittelt, dass sie eine Hemmung der extrazellulären Superoxidanionenproduktion um ca. 20 % zur Folge hat. […]
# [1] = target: T2, protektive Katalase von Tumorzellen (Homo sapiens, UniProt P04040); test: Inactivation of protective catalase: sensitisation of MKN-45 cells to peroxynitrite-induced apoptosis; assay type: cell-based; settings: 150 µM DADS for 20 min or 50 mM 3-AT, apoptosis 100 min after PON
# T2 construct: endogenous in cells; host or cells: MKN-45 (human gastric carcinoma cell line)
# T2 sequence (P04040 2-527 limits assumed): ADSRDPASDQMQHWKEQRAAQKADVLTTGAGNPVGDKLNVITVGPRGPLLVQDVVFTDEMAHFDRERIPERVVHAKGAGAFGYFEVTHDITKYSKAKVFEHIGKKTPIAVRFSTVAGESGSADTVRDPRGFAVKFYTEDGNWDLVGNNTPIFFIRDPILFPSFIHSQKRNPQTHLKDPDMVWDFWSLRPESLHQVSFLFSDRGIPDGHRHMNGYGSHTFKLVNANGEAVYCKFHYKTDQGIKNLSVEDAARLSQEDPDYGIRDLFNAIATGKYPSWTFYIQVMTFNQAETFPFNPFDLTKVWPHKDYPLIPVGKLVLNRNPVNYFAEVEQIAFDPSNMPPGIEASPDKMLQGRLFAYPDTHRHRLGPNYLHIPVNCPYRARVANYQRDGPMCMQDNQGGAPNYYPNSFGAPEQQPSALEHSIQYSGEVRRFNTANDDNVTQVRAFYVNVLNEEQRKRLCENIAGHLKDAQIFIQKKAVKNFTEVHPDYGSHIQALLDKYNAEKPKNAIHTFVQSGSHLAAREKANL
# Protocol: Figur 8: DADS führt zur Inaktivierung der protektiven Katalase von Tumorzellen • A. Humane MKN-45 Tumorzellen enthielten entweder zunächst keine Zusätze (Kontrolle), 50 mM des Katalasehemmers 3-AT oder wurden für 20 Minuten mit 150 µM DADS behandelt. Nach einem Waschschritt und der Verdünnung der Zellkonzentration auf 6000 Zellen / 100 µl Ansatz wurde Peroxynitrit (PON) in den angegebenen Konzentrationen zugegeben. Nach 100 Minuten erfolgte die Bestimmung der apoptotischen Zellen in Doppelansätzen. Wie die Kontrolle zeigt, sind die Tumorzellen vor der Apoptose-auslösenden Wirkung von Peroxynitrit geschützt.
# Figur 8 A zeigt, dass die kurzzeitige Behandlung von Tumorzellen mit DADS den gleichen Effekt hat, wie die Zugabe des Katalasehemmstoffs 3-Aminotriazol (3-AT), nämlich die Zellen für die Apoptose-auslösende Wirkung von exogen zugegebenem Peroxynitrit (PON) zu aktivieren. Die Sensitivierung für die Wirkung von PON ermöglicht die selektive Testung der Inaktivierung der membranständigen Katalase von Tumorzellen (Heinzelmann and Bauer, 2010; Böhm et al., 2015). Im Gegensatz zu DADS führt DAS zu keiner Inaktivierung der Katalase (Figur 8 F). […]
# [2] = system: humane Magenkarzinomzellen MKN-45; test: Apoptosis induction in tumour cells (morphological criteria, duplicate assays); assay type: cell-based, human; settings: for Konzentration, bei der der maximale Apoptose-auslösende Effekt erzielt wird: MKN-45, 3,5 Stunden Inkubation; for Apoptoseinduktion in Tumorzellen: MKN-45, 3 Stunden, 37 °C, 5 % CO2; for Konzentration für optimale Wirkung: induction of apoptosis in tumour cells, single agents, combinations with Resveratrol, or hybrid
# Protocol: Nach 3 Stunden bei 37 ° C, 5 % CO2 wurden die Prozentsätze apoptotischer Zellen bestimmt. […] Nach 3 Stunden bei 37 ° C, 5 % CO2 wurden die Prozentsätze apoptotischer Zellen bestimmt.
# Die Daten basieren allesamt auf der quantitativen Bestimmung der Apoptose mittels der klassischen morphologischen Kriterien Kernkondensation, Kernfragmentation und Membrane Blebbing nach definierten Inkubationszeiten bei 37°C.
# Die Ansätze erfolgten bei einer Zelldichte von 125 000 Zellen/ml in 96-Loch-Platten mit einem Reaktionsvolumen von 100 µl. Alle Ansätze wurden als Doppelansätze geführt und pro Messpunkt wurden mindestens 200 Zellen morphologisch bewertet. Eine detaillierte Aufstellung der verwendeten Medien, Inhibitoren, Zellen ist in den Arbeiten Scheit and Bauer, 2015; Bauer und Zarkovic, 2014; Bauer et al., 2014; Bauer, 2015 beschrieben.
# Um zu klären, ob das Hybridmolekül aus Struktur- und Wirkungselementen von Resveratrol und Diallyldisulfid in der Lage ist, Apoptose in Tumorzellen zu induzieren, und dabei zu prüfen, ob sich durch die Kombination der Einzelfunktionen in einem Molekül der Synergieeffekt bündeln ließ, wurden steigende Konzentrationen des Hybridmoleküls zu Magenkarzinomzellen der Linie MKN-45 gegeben. Die als Parallelansätze geführten Ansätze wurden sowohl ohne als auch in Anwesenheit von 2 mM des Singulettsauerstofffängers Histidin inkubiert, um zu prüfen, ob der durch das Hybridmolekül ausgelöste Effekt durch Singulettsauerstoff vermittelt wird. Zum Vergleich wurde das gleiche Experiment mit steigenden Konzentrationen DADS durchgeführt, ebenfalls mit und ohne Histidinzugabe. Nach 3,5 Stunden Inkubation wurde der Prozentsatz apoptotischer Zellen bestimmt.
# NO Dioxygenase = test: Test for inhibition of NO dioxygenase (enhanced effect of NO donor DEA NONOate on superoxide-producing cells); assay type: cell-based
# Text: Die Messung erfordert, dass durch geeignete Maßnahmen, wie bei Scheit und Bauer, 2015 beschrieben, die Tumorzellkatalase maximal inhibiert, die Hemmwirkung von H2O2 auf ·NO und Peroxynitrit durch Anwesenheit eines Katalasemimetikums verhindert und de novo Synthese von ·NO durch die Anwesenheit des NOS Inhibitors L-NAME verhindert wird.
# as §1
# [3] = system: nichtmaligne, diploide humane Fibroblasten Alpha-1; test: Apoptosis induction in non-malignant cells (morphological criteria); assay type: cell-based, human; settings: Alpha-1 fibroblasts, 3 Stunden, 37 °C, 5 % CO2
# Protocol: Figur 6: Diallyldisulfid und Dipropyldisulfid, nicht aber Diallylsulfid lösen selektiv in Tumorzellen interzelluläres Signaling und Apoptose aus. • A. 12 500 humane Magenkarzinomzellen MKN-45 oder 10 000 nichtmaligne, diploide humane Fibroblasten Alpha-1 wurden in Doppelansätzen in Serum-haltigen Medium mit den angegebenen Konzentrationen an Diallyldisulfid (DADS), Dipropyldisulfid (DPDS) oder Diallylsulfid (DAS) versetzt. Nach 3 Stunden bei 37 ° C, 5 % CO2 wurden die Prozentsätze apoptotischer Zellen bestimmt. […] Nach 3 Stunden bei 37 ° C, 5 % CO2 wurden die Prozentsätze apoptotischer Zellen bestimmt. Das Ergebnis zeigt, dass die durch DADS ausgelöste Apoptose von der Wirkung von Singulettsauerstoff, Superoxidanionen, Caspase-8, NO und HOCI abhängig ist.
# Die Daten basieren allesamt auf der quantitativen Bestimmung der Apoptose mittels der klassischen morphologischen Kriterien Kernkondensation, Kernfragmentation und Membrane Blebbing nach definierten Inkubationszeiten bei 37°C. Parallel wurden diese Kriterien mithilfe der TUNEL-Reaktion gesichert, wodurch die für die Apoptose charakteristischen DNA-Strangbrüche nachgewiesen wurden, und die Abhängigkeit der Apoptoseinduktion von Caspase-3 und Caspase-9 überprüft, wodurch sichergestellt war, dass die Apoptose über den mitochondrialen Weg abläuft. […]
compound,measurement,setting,value
"NCCc1ccc(S(=O)(=O)F)cc1 [AEBSF, 4-(2-Aminoethyl)benzenesulfonyl fluoride]",Hemmung von NOX1 / der extrazellulären Superoxidanionenproduktion,NOX1; 5 µM,20%
same,Hemmung von NOX1 / der Superoxidanionensynthese,NOX1; 100 µM,> 95% and > 90%
"C=CCSSCC=C [DADS, Diallyldisulfid]",Wirkung auf die protektive Katalase (sensitisation to peroxynitrite),[1],gleichen Effekt wie der Katalasehemmstoff
same,EC40,"[2]; Homo sapiens, MKN-45, 3.5 h, read-out: Konzentration für den gleichen Effekt (ca. 40 Prozent des Maximalwertes der Apoptoseinduktion)",1100 nM
same,"Konzentration, bei der der maximale Apoptose-auslösende Effekt erzielt wird",[2]; alleinige Gabe,10 µM
same,Apoptoseinduktion in Tumorzellen,[2],konzentrationsabhängig zur Apoptose
same,Hemmung der NO Dioxygenase,NO Dioxygenase,Hemmung dieses Enzyms
same,Apoptoseinduktion in normalen Zellen,[3],nicht aber bei den normalen Zellen
"C=CCSCC=C [DAS, Diallylsulfid]",Wirkung auf die protektive Katalase (sensitisation to peroxynitrite),[1],keine Wirkung auf die protektive Katalase
same,Apoptoseinduktion in Tumorzellen,[2],keine Aktivität
"CCCSSCCC [DPDS, Dipropyldisulfid]",Apoptoseinduktion in Tumorzellen,[2],konzentrationsabhängig zur Apoptose
same,Apoptoseinduktion in normalen Zellen,[3],nicht aber bei den normalen Zellen
C=CCSSCCCOc1cc(/C=C/c2ccc(O)cc2)cc(OCCCSSCC=C)c1 [Hybridmolekül],Prozent des Maximalwertes der Apoptoseinduktion,"[2]; 1 nM, MKN-45, 3,5 Stunden",ca. 40 Prozent
same,"Konzentration, bei der der maximale Apoptose-auslösende Effekt erzielt wird",[2],0.01 µM
same,Konzentration für optimale Wirkung,[2],3 to 30 nM
same,Steigerung der Wirkung durch Zugabe von Einzelkomponenten,"[2]; plus 0,9 µM Resveratrol, 0.3 µM DADS or 2,5 µM NOR-NOHA, MKN-45, 3,5 Stunden",nicht steigern
same,wirksamer als Diallyldisulfid,"[2]; shift of concentration-effect curves, apoptosis in MKN-45",~1000 -fach
O=c1c(O)c(-c2ccc(O)c(O)c2)oc2cc(O)cc(O)c12 [Quercitin],Hemmung der NO Dioxygenase,NO Dioxygenase,Hemmung dieses Enzyms
CC(=O)O[C@H]1C(=O)[C@@]2(C)[C@H]([C@H](OC(=O)c3ccccc3)[C@]3(O)C[C@H](OC(=O)[C@H](O)[C@@H](NC(=O)c4ccccc4)c4ccccc4)C(C)=C1C3(C)C)[C@]1(OC(C)=O)CO[C@@H]1C[C@@H]2O [Taxol],wirksamer in Bezug auf Induktion der Apoptose in Tumorzellen als Diallyldisulfid,[2]; from Tabelle 2,≥ 10 -fach
same,Konzentration für optimale Wirkung,[2],900 to 3800 nM
same,Hemmung der NO Dioxygenase,NO Dioxygenase,Hemmung dieses Enzyms
Epothilon B,Hemmung der NO Dioxygenase,NO Dioxygenase,Hemmung dieses Enzyms

# — EP3178809A1, “HYBRID MOLECULE WITH STRUCTURAL AND ACTIVITY ELEMENTS OF RESVERATROL AND DIALLYL SULFIDE” (Albert-Ludwigs-Universität Freiburg, priority 2015, dated 2017)
